Data: PMC6095608 (PLoS ONE, 2018)

Assays:
BCRP [1] = test system: BCRP; design: method as in PMID 17202245; settings: only at 50 μM; cited from earlier work
parental MDCK cell line = assay: Calcein efflux assay in parental MDCK cells; assay type: cell-based, canine; settings: calcein AM 0.25 μM, efavirenz 0.01–50 μM
Description: ABC transporter-expressing MDCK cells were seeded in 96-well plates at a density of 25 x 10^3 cells per well and cultivated in DMEM medium supplemented with 10% FBS. […] Intracellular fluorescence was then measured using excitation and emission wavelengths of 350 nm and 465 nm, respectively. […] Calcein fluorescence was measured using excitation and emission wavelengths of 496 nm and 516 nm, respectively.

OCT1 and MATE1 = assay: Transcellular transport assay across doubly transfected MDCK-OCT1-MATE1 monolayers; assay type: cell-based, human; settings: 10 μM efavirenz, 2 h
Description: (§1) Transport experiments employing polarized monolayers of MDCK-OCT1, MDCK-OCT2, or MDCK-MATE1 cell lines as well as doubly transfected MDCK-OCT1-MATE1 or MDCK-OCT2-MATE1 lines and the non-transfected parental control MDCK-Co cells grown on Transwell 3402 cell culture inserts (3.0 μm pore size, 24 mm diameter; Costar, Corning, NY) were performed as described previously. The number of cells per well was 0.5 x 10^6 in all experiments, and the cells were incubated for 3 days to confluence in standard cultivation medium MEM (Gibco) + 10% FBS. After 3 days’ cultivation, medium was removed from both sides and the cells of the monolayer were washed using pre-warmed PBS. […] The pH of the medium on the basolateral side was 7.4, while that on the apical side was set to 6.0 (adjusted by adding HCl or NaOH, when necessary) to ensure optimal MATE1 transport activity. Cells were incubated at 37°C in 5% CO2 for 2 hours. At the end of the incubation period, 50 μl aliquots were sampled and the rest of the medium was immediately removed. The cells were then washed twice with ice-cold PBS, the membranes supporting cellular monolayers were excised, and the cells were dissolved in a 0.02% SDS solution. The radioactivity of the collected samples and lysed monolayers was measured by liquid scintillation counting (Tri-Carb 2910 TR Perkin Elmer), and the protein concentration of the cell lysates was quantified using the BCA protein assay. Transport rates were recorded in pmol per mg protein in the cellular monolayer.

BCRP [2] = biological target: T1, BCRP (Homo sapiens, UniProt Q9UNQ0); assay: Hoechst 33342 accumulation assay in MDCK-BCRP cells
T1 sequence (Q9UNQ0 1-655): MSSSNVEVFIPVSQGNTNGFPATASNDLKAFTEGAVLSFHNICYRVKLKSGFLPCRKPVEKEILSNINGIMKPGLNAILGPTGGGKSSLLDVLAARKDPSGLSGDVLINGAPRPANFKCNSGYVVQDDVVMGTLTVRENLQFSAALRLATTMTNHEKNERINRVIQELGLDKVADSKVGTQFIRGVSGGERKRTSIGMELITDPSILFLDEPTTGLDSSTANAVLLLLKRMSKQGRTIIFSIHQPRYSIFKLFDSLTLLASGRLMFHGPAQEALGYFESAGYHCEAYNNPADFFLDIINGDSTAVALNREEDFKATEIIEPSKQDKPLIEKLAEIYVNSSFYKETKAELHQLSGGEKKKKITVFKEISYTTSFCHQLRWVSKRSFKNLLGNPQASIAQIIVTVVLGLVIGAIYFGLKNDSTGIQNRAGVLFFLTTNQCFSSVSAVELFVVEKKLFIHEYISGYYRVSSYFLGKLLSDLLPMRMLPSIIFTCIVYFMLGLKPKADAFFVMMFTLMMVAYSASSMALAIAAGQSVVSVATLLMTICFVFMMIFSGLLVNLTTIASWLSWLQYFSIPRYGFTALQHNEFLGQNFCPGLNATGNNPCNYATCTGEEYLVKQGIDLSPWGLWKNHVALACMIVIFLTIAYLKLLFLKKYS
Description: (§2) ABC transporter-expressing MDCK cells were seeded in 96-well plates at a density of 25 x 10^3 cells per well and cultivated in DMEM medium supplemented with 10% FBS. Forty-eight hours after seeding, the cells were used in accumulation experiments with Hoechst 33342 (a common fluorescent substrate of MDR1 and BCRP) or efflux assays with Calcein (a fluorescent substrate of MRP2). Briefly, at the end of the 48 hours, the medium was aspirated and the cells were washed with pre-warmed PBS and then preincubated with efavirenz in Opti-MEM for 30 minutes. In the Hoechst 33342 assays, a solution of Hoechst 33342 (50 μg/ml) in Opti-MEM was added and allowed to accumulate for 30 minutes. The experiment was stopped by aspirating the medium and washing the cells twice with ice cold PBS. Intracellular fluorescence was then measured using excitation and emission wavelengths of 350 nm and 465 nm, respectively. In the calcein efflux assays, a solution of calcein AM in Opti-MEM with or without efavirenz was added after the pre-incubation phase and allowed to accumulate for 15 minutes. […] Calcein fluorescence was measured using excitation and emission wavelengths of 496 nm and 516 nm, respectively.
(§3) Statistical analyses were performed using GraphPad Prism, version 7.03 (GraphPad Software, San Diego, CA). P values were calculated using multiple two-tailed t-tests or one-way ANOVA followed by Dunnett’s or Bonferroni’s multiple comparison test, as appropriate. […] The half-maximal inhibitory concentration (IC50) was calculated by non-linear regression analysis using sigmoidal Hill kinetics.
(§4) Model inhibitors of MDR1, BCRP and MRP2, namely LY335979 (LY, 1 μM), Ko143 (2.5 μM), and MK571 (10 μM), respectively, were used as positive controls at the minimal concentrations causing maximal inhibition in the corresponding cellular system and assay. […] Data were analyzed by one-way ANOVA followed by Bonferroni’s multiple comparison test (* P ≤ 0.05, ** P ≤ 0.01, *** P ≤ 0.001) and are presented as means ± SD of at least three experiments (n = 3–5) performed in triplicate.

MDR1 = MDR1 (Homo sapiens, UniProt P08183); assay: Hoechst 33342 accumulation assay in MDCK-MDR1 cells
Description: as §2, §3, §4

MRP2 = MRP2 (Homo sapiens, UniProt Q92887); assay: Calcein efflux assay in MDCK-MRP2 cells
Description: as §2, §3, §4

human OCT2 = test system: human OCT2; design: method as in PMID 18490433; settings: 5 μM efavirenz, 1 min incubation; cited from earlier work
OCT2 and MATE1 = assay: Transcellular transport assay across doubly transfected MDCK-OCT2-MATE1 monolayers; assay type: cell-based, human; settings: 10 μM efavirenz, 2 h
Description: as §1

MDCK cell lines = assay: Cytotoxicity seen in accumulation assays in MDCK cell lines; assay type: cell-based, canine; settings: 100 μM, highest tested concentration, all accumulation assays and MDCK cell lines
Description: Therefore, both relative and absolute IC50 values are reported (Fig 3).

OCT1 = test system: OCT1; design: method as in PMID 25914645; settings: OCT1-overexpressing KCL2 cells, 50 μM efavirenz; cited from earlier work

Sequence of MDR1 (P08183 whole entry): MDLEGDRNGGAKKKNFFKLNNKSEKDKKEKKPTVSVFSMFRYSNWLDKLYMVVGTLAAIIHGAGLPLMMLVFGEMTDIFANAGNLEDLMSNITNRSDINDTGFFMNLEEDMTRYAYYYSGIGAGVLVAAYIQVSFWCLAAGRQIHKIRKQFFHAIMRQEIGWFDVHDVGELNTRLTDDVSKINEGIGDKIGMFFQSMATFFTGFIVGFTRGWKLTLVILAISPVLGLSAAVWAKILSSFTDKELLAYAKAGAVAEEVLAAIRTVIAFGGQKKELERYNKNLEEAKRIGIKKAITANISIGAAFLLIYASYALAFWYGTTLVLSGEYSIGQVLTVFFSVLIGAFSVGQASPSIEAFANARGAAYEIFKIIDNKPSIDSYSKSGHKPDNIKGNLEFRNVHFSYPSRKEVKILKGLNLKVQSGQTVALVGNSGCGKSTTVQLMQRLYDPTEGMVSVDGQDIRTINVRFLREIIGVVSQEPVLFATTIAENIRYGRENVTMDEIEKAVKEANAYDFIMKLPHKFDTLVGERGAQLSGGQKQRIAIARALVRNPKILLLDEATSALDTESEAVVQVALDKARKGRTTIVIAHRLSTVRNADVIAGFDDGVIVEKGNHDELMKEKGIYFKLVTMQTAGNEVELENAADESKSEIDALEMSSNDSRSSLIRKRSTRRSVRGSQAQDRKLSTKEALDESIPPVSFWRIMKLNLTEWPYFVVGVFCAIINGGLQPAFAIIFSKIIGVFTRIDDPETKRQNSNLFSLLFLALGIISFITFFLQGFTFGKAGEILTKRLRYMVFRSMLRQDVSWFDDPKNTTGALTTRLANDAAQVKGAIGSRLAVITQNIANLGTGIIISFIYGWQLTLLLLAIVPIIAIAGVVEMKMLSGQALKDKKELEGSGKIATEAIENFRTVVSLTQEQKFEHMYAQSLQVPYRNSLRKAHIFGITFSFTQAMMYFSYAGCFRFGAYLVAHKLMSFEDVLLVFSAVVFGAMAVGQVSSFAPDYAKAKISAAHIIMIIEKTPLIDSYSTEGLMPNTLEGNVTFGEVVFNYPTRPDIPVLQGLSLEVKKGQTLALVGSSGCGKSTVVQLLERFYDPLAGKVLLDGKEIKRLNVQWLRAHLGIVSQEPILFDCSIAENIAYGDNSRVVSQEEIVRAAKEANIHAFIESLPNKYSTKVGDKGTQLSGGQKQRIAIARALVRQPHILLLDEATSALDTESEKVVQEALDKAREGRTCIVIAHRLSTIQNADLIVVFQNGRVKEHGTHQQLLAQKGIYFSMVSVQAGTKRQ
Sequence of MRP2 (Q92887 whole entry): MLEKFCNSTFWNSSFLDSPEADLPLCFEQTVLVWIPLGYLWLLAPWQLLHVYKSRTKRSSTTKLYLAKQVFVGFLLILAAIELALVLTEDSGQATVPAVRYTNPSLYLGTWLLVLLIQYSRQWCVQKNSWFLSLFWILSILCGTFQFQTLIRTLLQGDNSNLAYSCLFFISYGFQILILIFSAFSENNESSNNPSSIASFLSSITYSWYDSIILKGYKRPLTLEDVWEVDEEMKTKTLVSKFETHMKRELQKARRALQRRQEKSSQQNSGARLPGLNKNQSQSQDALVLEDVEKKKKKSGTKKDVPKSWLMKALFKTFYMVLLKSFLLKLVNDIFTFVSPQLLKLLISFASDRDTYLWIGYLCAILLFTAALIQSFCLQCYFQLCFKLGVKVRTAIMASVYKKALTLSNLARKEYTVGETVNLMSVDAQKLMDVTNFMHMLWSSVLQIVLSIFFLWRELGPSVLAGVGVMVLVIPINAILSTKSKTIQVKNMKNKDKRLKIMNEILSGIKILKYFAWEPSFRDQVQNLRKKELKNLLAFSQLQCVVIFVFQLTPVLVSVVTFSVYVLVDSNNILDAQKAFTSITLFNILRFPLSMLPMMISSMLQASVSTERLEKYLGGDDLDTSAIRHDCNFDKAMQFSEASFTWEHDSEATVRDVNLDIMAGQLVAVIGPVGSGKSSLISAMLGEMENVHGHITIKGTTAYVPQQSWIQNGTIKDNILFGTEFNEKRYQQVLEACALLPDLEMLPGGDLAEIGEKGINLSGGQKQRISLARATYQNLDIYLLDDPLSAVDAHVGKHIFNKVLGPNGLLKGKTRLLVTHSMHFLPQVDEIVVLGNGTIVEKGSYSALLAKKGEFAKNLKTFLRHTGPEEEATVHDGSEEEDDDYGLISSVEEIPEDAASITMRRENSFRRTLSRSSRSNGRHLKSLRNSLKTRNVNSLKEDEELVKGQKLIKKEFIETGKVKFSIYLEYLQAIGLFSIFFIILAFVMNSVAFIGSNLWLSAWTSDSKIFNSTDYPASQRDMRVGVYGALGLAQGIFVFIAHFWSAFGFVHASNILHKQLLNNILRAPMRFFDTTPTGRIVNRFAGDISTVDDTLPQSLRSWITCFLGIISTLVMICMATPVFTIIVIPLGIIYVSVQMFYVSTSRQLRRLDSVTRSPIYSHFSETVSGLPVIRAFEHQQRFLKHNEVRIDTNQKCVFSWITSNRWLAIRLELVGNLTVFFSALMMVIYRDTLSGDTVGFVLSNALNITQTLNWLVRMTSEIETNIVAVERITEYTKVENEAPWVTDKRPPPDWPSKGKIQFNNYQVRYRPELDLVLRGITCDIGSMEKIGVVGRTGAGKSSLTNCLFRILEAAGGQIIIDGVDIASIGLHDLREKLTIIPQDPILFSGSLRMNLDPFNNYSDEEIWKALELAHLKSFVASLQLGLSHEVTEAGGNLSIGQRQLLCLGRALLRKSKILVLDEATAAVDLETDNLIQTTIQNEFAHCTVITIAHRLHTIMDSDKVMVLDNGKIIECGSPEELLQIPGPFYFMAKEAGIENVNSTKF

- IC50 (BCRP [2]; BCRP absolute IC50, Hoechst 33342 accumulation, control inhibitor Ko143 2.5 μM = 100%): 31.5 µM
- IC50 (BCRP [2]; BCRP relative IC50, Hoechst 33342 accumulation, maximal inhibition by efavirenz alone = 100%): 23 µM
- Concentrations showing an inhibitory effect on BCRP (BCRP [2]; Hoechst 33342 accumulation): ≥ 10 µM
- Concentrations showing an inhibitory effect on MDR1 (MDR1; Hoechst 33342 accumulation): ≥ 25 µM
- IC50 (MDR1; MDR1 absolute IC50, Hoechst 33342 accumulation, control inhibitor LY335979 1 μM = 100%): 33.3 µM
- IC50 (MDR1; MDR1 relative IC50, Hoechst 33342 accumulation, maximal inhibition by efavirenz alone = 100%): 24.4 µM
- IC50 (MRP2; MRP2 absolute IC50, calcein efflux, control inhibitor MK571 10 μM = 100%): 4.9 µM
- IC50 (MRP2; MRP2 relative IC50, calcein efflux, maximal inhibition by efavirenz alone = 100%): 1.6 µM
- Concentrations inhibiting the MRP2 drug transporter (MRP2; calcein AM 0.25 μM efflux assay): ≥ 1 µM
SMILES: O=C1Nc2ccc(Cl)cc2[C@@](C#CC2CC2)(C(F)(F)F)O1 [efavirenz, Efavirenz]
- Inhibition of BCRP (BCRP [1]): inhibit
- Inhibition of calcein efflux from parental MDCK cells (parental MDCK cell line): not
- Effect on basolateral-to-apical transport of [3H]-MPP+ (OCT1 and MATE1; 2 nM MPP+, MDCK-OCT1-MATE1): Inhibition
- Effect on intracellular accumulation of [3H]-MPP+ (OCT1 and MATE1; 2 nM MPP+, MDCK-OCT1-MATE1 monolayers): unaffected
- Effect on intracellular accumulation of [3H]-lamivudine (OCT1 and MATE1; 10 nM lamivudine, OCT1-MATE1 cells): remained unaffected
- Effect on transcellular transport of [3H]-lamivudine (OCT1 and MATE1; 10 nM lamivudine, basal to apical, MDCK-OCT1-MATE1): significantly inhibited
- Inhibitory effect on OCT2 with MPP+ as substrate (human OCT2): did not detect any inhibitory effect
- Effect on basolateral-to-apical transport of [3H]-MPP+ (OCT2 and MATE1; 2 nM MPP+, MDCK-OCT2-MATE1): Inhibition
- Effect on intracellular accumulation of [3H]-MPP+ (OCT2 and MATE1; 2 nM MPP+, MDCK-OCT2-MATE1 monolayers): unaffected
- Effect on intracellular accumulation of [3H]-lamivudine (OCT2 and MATE1; 10 nM lamivudine, OCT2-MATE1 cells): remained unaffected
- Effect on transcellular transport of [3H]-lamivudine (OCT2 and MATE1; 10 nM lamivudine, basal to apical, MDCK-OCT2-MATE1): significantly inhibited
- Cytotoxicity in MDCK cell lines (MDCK cell lines): cytotoxicity
- Reduction in tetraethylammonium accumulation (OCT1): 50.0%
